Results: US7750017B2, “Heterocycles” (Bayer Schering Pharma Aktiengesellschaft, priority 2004, dated 2010)

Legend:
[1] = test system: BT474 [human breast carcinoma, overexpressing HER2 (ErbB2)]; assay: In vitro tumor cell proliferation assay (Cell Titer-Glo luminescent cell viability), BT474 cells; format: cell-based; conditions: BT-474, 72 h, 72 hours of drug exposure, Cell Titer-Glo readout, read-out: IC50, anti-proliferative activity in BT474 cells
From the text: (§1) The utility of the compounds of the present invention can be illustrated, for example, by their activity in vitro in the in vitro tumor cell proliferation assay described below. The link between activity in tumor cell proliferation assays in vitro and anti-tumor activity in the clinical setting has been very well established in the art.
(§2) The following assay is one of the methods by which compound activity relating to treatment of the disorders identified herein can be determined.
(§3) The tumor cell proliferation assay used to test the compounds of the present invention involves a readout called Cell Titer-Glow® Luminescent Cell Viability Assay developed by Promega® (Cunningham, B A “A Growing Issue: Cell Proliferation Assays, Modern kits ease quantification of cell growth” The Scientist 2001, 15(13), 26, and Crouch, S P et al., “The use of ATP bioluminescence as a measure of cell proliferation and cytotoxicity” Journal of Immunological Methods 1993, 160, 81-88), that measures inhibition of cell proliferation. Generation of a luminescent signal corresponds to the amount of ATP present, which is directly proportional to the number of metabolically active (proliferating) cells.
(§4) A431 cells [human epidermoid carcinoma, ATCC # […], overexpressing HER1 (EGFR, ErbB1)] and BT474 [human breast carcinoma, ATCC # CRL-1555, overexpressing HER2 (ErbB2)] were plated at a density of 2.5×10^3 cells/well in 96 well black-clear bottom tissue culture plates in RPMI media with 10% Fetal Bovine Serum and incubated at 37° C. Twenty-four hours later, test compounds are added at a final concentration range from as high 100 μm to as low 64 pM depend on the activities of the tested compounds in serial dilutions at a final DMSO concentration of 0.1%. Cells were incubated for 72 hours at 37° C. in complete growth media after addition of the test compound. After 72 hours of drug exposure, the plates were equilibrated to room temperature for approximately 30 min. Then, using a Promega Cell Titer Glo Luminescent® assay kit, lysis buffer containing 100 microliters of the enzyme luciferase and its substrate, luciferin mixture, was added to each well. The plates were mixed for 2 min on orbital shaker to ensure cell lysis and incubated for 10 min at room temperature to stabilize luminescence signal. The samples were read on VICTOR 2 using Luminescence protocol, and analyzed with Analyze5 software to generate IC50 values.

[2] = test system: A431 cells [human epidermoid carcinoma, overexpressing HER1 (EGFR, ErbB1)]; assay: In vitro tumor cell proliferation assay (Cell Titer-Glo luminescent cell viability), A431 cells; format: cell-based; conditions: A-431, 72 h, 72 hours of drug exposure, Cell Titer-Glo readout, read-out: IC50, anti-proliferative activity in A431 cells
From the text: as §1, §2, §3, §4

SMILES	IC50 [1] [µM]	IC50 [2] [µM]
O=C(O)/C=C/c1ccc2c(c1)sc1ncnc(Nc3ccc(OCc4cccc(F)c4)c(Cl)c3)c12 [Example 48, (2E)-3-[4-({3-chloro-4-[(3-fluorobenzyl)oxy]phenyl}amino)[1]benzothieno[2,3-d]pyrimidin-7-yl]acrylic acid]	≤ 5	≤ 50
CCN1CCN(C(=O)/C=C/c2ccc3c(c2)sc2ncnc(Nc4ccc(OCc5cccc(F)c5)c(Cl)c4)c23)CC1 [Example 49, N-{3-chloro-4-[(3-fluorobenzyl)oxy]phenyl}-7-[(1E)-3-(4-ethylpiperazin-1-yl)-3-oxoprop-1-en-1-yl][1]benzothieno[2,3-d]pyrimidin-4-amine]	≤ 5	≤ 5
COCCNC(=O)/C=C/c1ccc2c(c1)sc1ncnc(Nc3ccc(OCc4cccc(F)c4)c(Cl)c3)c12 [Example 50, (2E)-3-[4-({3-chloro-4-[(3-fluorobenzyl)oxy]phenyl}amino) [1]benzothieno[2,3-d]pyrimidin-7-yl]-N-(2-methoxyethyl)acrylamide]	≤ 0.5	≤ 50
CN1CCN(C(=O)/C=C/c2ccc3c(c2)sc2ncnc(Nc4ccc(OCc5cccc(F)c5)c(Cl)c4)c23)CC1 [Example 51, N-{3-chloro-4-[(3-fluorobenzyl)oxy]phenyl}-7-[(1E)-3-(4-methylpiperazin-1-yl)-3-oxoprop-1-en-1-yl][1]benzothieno [2,3-d]pyrimidin-4-amine]	≤ 5	≤ 5
CN(C)[C@H]1CCN(C(=O)/C=C/c2ccc3c(c2)sc2ncnc(Nc4ccc(OCc5cccc(F)c5)c(Cl)c4)c23)C1 [Example 52, N-{3-chloro-4-[(3-fluorobenzyl)oxy]phenyl}-7-{(1E)-3-[(3S)-3-(dimethylamino)pyrrolidin-1-yl]-3-oxoprop-1-en-1-yl}[1]benzothieno[2,3-d] pyrimidin-4-amine]	≤ 5	≤ 5
CN(C)CCNC(=O)/C=C/c1ccc2c(c1)sc1ncnc(Nc3ccc(OCc4cccc(F)c4)c(Cl)c3)c12 [Example 54, (2E)-3-[4-({3-chloro-4-[(3-fluorobenzyl)oxy]phenyl}amino) [1]benzothieno[2,3-d]pyrimidin-7-yl]-N-[2-(dimethylamino)ethyl]acrylamide]	≤ 5	≤ 50
CCN1CCN(C(=O)C(O)C(O)c2ccc3c(c2)sc2ncnc(Nc4ccc(OCc5cccc(F)c5)c(Cl)c4)c23)CC1 (stereo not shown) [Example 56, 1-[4-({3-chloro-4-[(3-fluorobenzyl)oxy]phenyl}amino)[1]benzothieno[2,3-d]pyrimidin-7-yl]-3-(4-ethylpiperazin-1-yl)-3-oxopropane-1,2-diol]	≤ 5	≤ 50
CCN1CCN(C(=O)[C@H](O)[C@@H](O)c2ccc3c(c2)sc2ncnc(Nc4ccc(OCc5cccc(F)c5)c(Cl)c4)c23)CC1 [Example 57, (1S,2R)-1-[4-({3-chloro-4-[(3-fluorobenzyl)oxy]phenyl}amino) [1]benzothieno[2,3-d]pyrimidin-7-yl]-3-(4-ethylpiperazin-1-yl)-3-oxopropane-1,2-diol]	≤ 5	≤ 50
CCN1CCN(C(=O)[C@@H](O)[C@H](O)c2ccc3c(c2)sc2ncnc(Nc4ccc(OCc5cccc(F)c5)c(Cl)c4)c23)CC1 [Example 58, (1R,2S)-1-[4-({3-chloro-4-[(3-fluorobenzyl)oxy]phenyl}amino)[1]benzothieno[2,3-d]pyrimidin-7-yl]-3-(4-ethylpiperazin-1-yl)-3-oxopropane-1,2-diol]	≤ 5	≤ 50
CN(C)[C@H]1CCN(C(=O)C(O)C(O)c2ccc3c(c2)sc2ncnc(Nc4ccc(OCc5cccc(F)c5)c(Cl)c4)c23)C1 (stereo partly drawn) [Example 59, 1-[4-({3-chloro-4-[(3-fluorobenzyl)oxy]phenyl}amino) [1]benzothieno[2,3-d]pyrimidin-7-yl]-3-[(3S)-3-(dimethylamino)pyrrolidin-1-yl]-3-oxopropane-1,2-diol]	≤ 5	≤ 50
CS(=O)(=O)CCNC(=O)C(O)C(O)c1ccc2c(c1)sc1ncnc(Nc3ccc(OCc4cccc(F)c4)c(Cl)c3)c12 (stereo not shown) [Example 60, 3-[4-({3-chloro-4-[(3-fluorobenzyl)oxy]phenyl}amino) [1]benzothieno[2,3-d]pyrimidin-7-yl]-2,3-dihydroxy-N-[2-(methylsulfonyl)ethyl]propanamide]	≤ 0.5	≤ 50
OC/C=C/c1ccc2c(c1)sc1ncnc(Nc3ccc(OCc4cccc(F)c4)c(Cl)c3)c12 [Example 61, (2E)-3-[4-({3-chloro-4-[(3-fluorobenzyl)oxy]phenyl}amino)[1]benzothieno[2,3-d]pyrimidin-7-yl]prop-2-en-1-ol]	≤ 0.5	≤ 50
OCC(O)C(O)c1ccc2c(c1)sc1ncnc(Nc3ccc(OCc4cccc(F)c4)c(Cl)c3)c12 (stereo not shown) [Example 62, 1-[4-({3-chloro-4-[(3-fluorobenzyl)oxy]phenyl}amino)[1]benzothieno[2,3-d]pyrimidin-7-yl]propane-1,2,3-triol]	≤ 0.5	≤ 5
OC[C@H](O)[C@@H](O)c1ccc2c(c1)sc1ncnc(Nc3ccc(OCc4cccc(F)c4)c(Cl)c3)c12 [Example 63, (1S,2S)-1-[4-({3-chloro-4-[(3-fluorobenzyl)oxy]phenyl}amino) [1]benzothieno[2,3-d]pyrimidin-7-yl]propane-1,2,3-triol]	≤ 0.5	≤ 5

The remaining lines, values ahead:

IC50 [1] [µM]	IC50 [2] [µM]	SMILES
≤ 0.5	≤ 5	OC[C@@H](O)[C@H](O)c1ccc2c(c1)sc1ncnc(Nc3ccc(OCc4cccc(F)c4)c(Cl)c3)c12 [Example 64, (1R,2R)-1-[4-({3-chloro-4-[(3-fluorobenzyl)oxy]phenyl}amino)[1]benzothieno[2,3-d]pyrimidin-7-yl]propane-1,2,3-triol]
≤ 5	≤ 50	O=C(O)CCc1ccc2c(c1)sc1ncnc(Nc3ccc(OCc4cccc(F)c4)c(Cl)c3)c12 [Example 65, 3-[4-({3-chloro-4-[(3-fluorobenzyl)oxy]phenyl}amino)[1]benzothieno[2,3-d]pyrimidin-7-yl]propanoic acid]
≤ 5	≤ 50	CN1CCN(C(=O)CCc2ccc3c(c2)sc2ncnc(Nc4ccc(OCc5cccc(F)c5)c(Cl)c4)c23)CC1 [Example 66, N-{3-chloro-4-[(3-fluorobenzyl)oxy]phenyl}-7-[3-(4-methylpiperazin-1-yl)-3-oxopropyl][1]benzothieno[2,3-d]pyrimidin-4-amine]
≤ 5	≤ 50	CCN1CCN(C(=O)CCc2ccc3c(c2)sc2ncnc(Nc4ccc(OCc5cccc(F)c5)c(Cl)c4)c23)CC1 [Example 67, N-{3-chloro-4-[(3-fluorobenzyl)oxy]phenyl}-7-[3-(4-ethylpiperazin-1-yl)-3-oxopropyl][1]benzothieno[2,3-d] pyrimidin-4-amine]
≤ 5	≤ 5	CN(C)[C@H]1CCN(C(=O)CCc2ccc3c(c2)sc2ncnc(Nc4ccc(OCc5cccc(F)c5)c(Cl)c4)c23)C1 [Example 68, N-{3-chloro-4-[(3-fluorobenzyl)oxy]phenyl}-7-{3-[(3S)-3-(dimethylamino)pyrrolidin-1-yl]-3-oxopropyl} [1]benzothieno[2,3-d]pyrimidin-4-amine]
≤ 0.5	≤ 5	CS(=O)(=O)CCNC(=O)CCc1ccc2c(c1)sc1ncnc(Nc3ccc(OCc4cccc(F)c4)c(Cl)c3)c12 [Example 69, 3-[4-({3-chloro-4-[(3-fluorobenzyl)oxy]phenyl}amino)[1]benzothieno[2,3-d]pyrimidin-7-yl]-N-[2-(methylsulfonyl)ethyl] propanamide]
≤ 5	≤ 5	CN(C)CCNC(=O)CCc1ccc2c(c1)sc1ncnc(Nc3ccc(OCc4cccc(F)c4)c(Cl)c3)c12 [Example 70, 3-[4-({3-chloro-4-[(3-fluorobenzyl)oxy]phenyl}amino)[1]benzothieno[2,3-d]pyrimidin-7-yl]-N-[2-(dimethylamino)ethyl] propanamide]
≤ 5	≤ 50	Clc1cc(Nc2ncnc3sc4cc(Br)ccc4c23)ccc1OCc1ccccn1 [Example 71, 7-bromo-N-[3-chloro-4-(pyridin-2-ylmethoxy)phenyl][1]benzothieno[2,3-d]pyrimidin-4-amine]
≤ 5	≤ 50	C=Cc1ccc2c(c1)sc1ncnc(Nc3ccc(OCc4ccccn4)c(Cl)c3)c12 [Example 72, N-[3-chloro-4-(pyridin-2-ylmethoxy)phenyl]-7-vinyl[1]benzothieno[2,3-d]pyrimidin-4-amine]
